Assays:
Experiment in all cases: Test F preemergence test
Conditions in all cases: scale 0 to 100
guineagrass = format: in vivo, Panicum maximum
How it was run: (§1)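 Compounds in a non-phytotoxic solvent formulation with surfactant were applied before emergence after sowing, or, for sugarcane, also postemergence. Evaluation was visual, against controls, after 14 to 21 greenhouse days.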

common ragweed = format: in vivo, Ambrosia elation
How it was run: as §1

common groundsel = format: in vivo, Senecio vulgaris
How it was run: as §1

Surinam grass = format: in vivo, Brachiaria decumbens
How it was run: as §1

Virginia dayflower = format: in vivo, Commelina virginica
How it was run: as §1

johnsongrass = format: in vivo, Sorghum halepense
How it was run: as §1

broadleaf signalgrass = format: in vivo, Brachiaria platyphylla
How it was run: as §1

bermudagrass = format: in vivo, Cynodon dactylon
How it was run: as §1

goosegrass = format: in vivo, Eleusine indica
How it was run: as §1

dallisgrass = format: in vivo, Paspalum dilatatum
How it was run: as §1

prickly sida = format: in vivo, Sida spinosa
How it was run: as §1

pitted morningglory = format: in vivo, Ipomoea lacunosa
How it was run: as §1

quackgrass = format: in vivo, Elytrigia repens
How it was run: as §1

Italian ryegrass = format: in vivo, Lolium multiflorum
How it was run: as §1

naked crabgrass = format: in vivo, Digitaria nuda
How it was run: as §1

itchgrass = format: in vivo, Rottboellia cochinchinensis
How it was run: as §1

common purslane = format: in vivo, Portulaca oleracea
How it was run: as §1

barnyardgrass = format: in vivo, Echinochloa crus-galli
How it was run: as §1

mustard = format: in vivo, Brassica nigra
How it was run: as §1

kochia = format: in vivo, Kochia scoparia
How it was run: as §1

large crabgrass = format: in vivo, Digitaria sanguinalis
How it was run: as §1

Cc1cc[n+]([O-])c(S(=O)(=O)C(Cl)c2c(C(F)(F)F)nn(C)c2Cl)c1 (racemic) [Compound 22]
Guineagrass plant response rating (guineagrass; 62 g ai/ha, Preemergence): 90 | Guineagrass plant response rating (guineagrass; 125 g ai/ha, preemergence): 100 | Plant response rating, Guineagrass (guineagrass; Preemergence, 16 g ai/ha): 60 | Plant response rating, Guineagrass (guineagrass; Preemergence, 31 g ai/ha): 80 | Ragweed plant response rating (common ragweed; 62 g ai/ha, Preemergence): 50 | Ragweed plant response rating (common ragweed; 125 g ai/ha, preemergence): 80 | Plant response rating, Ragweed (common ragweed; Preemergence, 16 g ai/ha): 0 | Plant response rating, Ragweed (common ragweed; Preemergence, 31 g ai/ha): 0 | Groundsel plant response rating (common groundsel; 62 g ai/ha, Preemergence): 50 | Groundsel plant response rating (common groundsel; 125 g ai/ha, preemergence): 98 | Plant response rating, Groundsel (common groundsel; Preemergence, 16 g ai/ha): 0 | Plant response rating, Groundsel (common groundsel; Preemergence, 31 g ai/ha): 50 | Surinam Grass plant response rating (Surinam grass; 62 g ai/ha, Preemergence): 65 | Surinam Grass plant response rating (Surinam grass; 125 g ai/ha, preemergence): 90 | Plant response rating, Surinam Grass (Surinam grass; Preemergence, 31 g ai/ha): 0 | Dayflower plant response rating (Virginia dayflower; 62 g ai/ha, Preemergence): 40 | Dayflower plant response rating (Virginia dayflower; 125 g ai/ha, preemergence): 100 | Plant response rating, Dayflower (Virginia dayflower; Preemergence, 16 g ai/ha): 0 | Plant response rating, Dayflower (Virginia dayflower; Preemergence, 31 g ai/ha): 0 | Johnsongrass plant response rating (johnsongrass; 62 g ai/ha, Preemergence): 60 | Johnsongrass plant response rating (johnsongrass; 125 g ai/ha, preemergence): 100 | Plant response rating, Johnsongrass (johnsongrass; Preemergence, 16 g ai/ha): 0 | Plant response rating, Johnsongrass (johnsongrass; Preemergence, 31 g ai/ha): 50 | Signalgrass plant response rating (broadleaf signalgrass; 62 g ai/ha, Preemergence): 60 | Signalgrass plant response rating (broadleaf signalgrass; 125 g ai/ha, preemergence): 80 | Plant response rating, Signalgrass (broadleaf signalgrass; Preemergence, 31 g ai/ha): 50 | Bermudagrass plant response rating (bermudagrass; 62 g ai/ha, Preemergence): 80 | Bermudagrass plant response rating (bermudagrass; 125 g ai/ha, preemergence): 90 | Plant response rating, Bermudagrass (bermudagrass; Preemergence, 16 g ai/ha): 0 | Plant response rating, Bermudagrass (bermudagrass; Preemergence, 31 g ai/ha): 35 | Goosegrass plant response rating (goosegrass; 62 g ai/ha, Preemergence): 80 | Goosegrass plant response rating (goosegrass; 125 g ai/ha, preemergence): 98 | Plant response rating, Goosegrass (goosegrass; Preemergence, 16 g ai/ha): 65 | Plant response rating, Goosegrass (goosegrass; Preemergence, 31 g ai/ha): 65 | Dallisgrass plant response rating (dallisgrass; 62 g ai/ha, Preemergence): 90 | Dallisgrass plant response rating (dallisgrass; 125 g ai/ha, preemergence): 100 | Plant response rating, Dallisgrass (dallisgrass; Preemergence, 16 g ai/ha): 0 | Plant response rating, Dallisgrass (dallisgrass; Preemergence, 31 g ai/ha): 20 | Prickly Sida plant response rating (prickly sida; 62 g ai/ha, Preemergence): 40 | Prickly Sida plant response rating (prickly sida; 125 g ai/ha, preemergence): 80 | Plant response rating, Prickly Sida (prickly sida; Preemergence, 16 g ai/ha): 0 | Plant response rating, Prickly Sida (prickly sida; Preemergence, 31 g ai/ha): 40 | Morningglory plant response rating (pitted morningglory; 62 g ai/ha, Preemergence): 0 | Morningglory plant response rating (pitted morningglory; 125 g ai/ha, preemergence): 20 | Plant response rating, Morningglory (pitted morningglory; Preemergence, 16 g ai/ha): 0 | Plant response rating, Morningglory (pitted morningglory; Preemergence, 31 g ai/ha): 0 | Quackgrass plant response rating (quackgrass; 62 g ai/ha, Preemergence): 20 | Quackgrass plant response rating (quackgrass; 125 g ai/ha, preemergence): 60 | Plant response rating, Quackgrass (quackgrass; Preemergence, 16 g ai/ha): 0 | Plant response rating, Quackgrass (quackgrass; Preemergence, 31 g ai/ha): 10 | Ryegrass, Italian plant response rating (Italian ryegrass; 62 g ai/ha, Preemergence): 70 | Ryegrass, Italian plant response rating (Italian ryegrass; 125 g ai/ha, preemergence): 70 | Plant response rating, Ryegrass, Italian (Italian ryegrass; Preemergence, 16 g ai/ha): 0 | Plant response rating, Ryegrass, Italian (Italian ryegrass; Preemergence, 31 g ai/ha): 20 | Crabgrass, Naked plant response rating (naked crabgrass; 62 g ai/ha, Preemergence): 80 | Crabgrass, Naked plant response rating (naked crabgrass; 125 g ai/ha, preemergence): 100 | Plant response rating, Crabgrass, Naked (naked crabgrass; Preemergence, 16 g ai/ha): 40 | Plant response rating, Crabgrass, Naked (naked crabgrass; Preemergence, 31 g ai/ha): 75 | Itchgrass plant response rating (itchgrass; 62 g ai/ha, Preemergence): 0 | Itchgrass plant response rating (itchgrass; 125 g ai/ha, preemergence): 60 | Plant response rating, Itchgrass (itchgrass; Preemergence, 16 g ai/ha): 0 | Plant response rating, Itchgrass (itchgrass; Preemergence, 31 g ai/ha): 0 | Purslane plant response rating (common purslane; 62 g ai/ha, Preemergence): 30 | Purslane plant response rating (common purslane; 125 g ai/ha, preemergence): 90 | Plant response rating, Purslane (common purslane; Preemergence, 16 g ai/ha): 0 | Plant response rating, Purslane (common purslane; Preemergence, 31 g ai/ha): 30 | Barnyardgrass plant response rating (barnyardgrass; 62 g ai/ha, Preemergence): 75 | Barnyardgrass plant response rating (barnyardgrass; 125 g ai/ha, preemergence): 95 | Plant response rating, Barnyardgrass (barnyardgrass; Preemergence, 16 g ai/ha): 10 | Plant response rating, Barnyardgrass (barnyardgrass; Preemergence, 31 g ai/ha): 40 | Black Mustard plant response rating (mustard; 62 g ai/ha, Preemergence): 50 | Black Mustard plant response rating (mustard; 125 g ai/ha, preemergence): 80 | Plant response rating, Black Mustard (mustard; Preemergence, 16 g ai/ha): 0 | Plant response rating, Black Mustard (mustard; Preemergence, 31 g ai/ha): 20 | Kochia plant response rating (kochia; 62 g ai/ha, Preemergence): 100 | Kochia plant response rating (kochia; 125 g ai/ha, preemergence): 98 | Plant response rating, Kochia (kochia; Preemergence, 16 g ai/ha): 98 | Plant response rating, Kochia (kochia; Preemergence, 31 g ai/ha): 100 | Crabgrass, Large plant response rating (large crabgrass; 62 g ai/ha, Preemergence): 70 | Crabgrass, Large plant response rating (large crabgrass; 125 g ai/ha, preemergence): 70 | Plant response rating, Crabgrass, Large (large crabgrass; Preemergence, 16 g ai/ha): 0 | Plant response rating, Crabgrass, Large (large crabgrass; Preemergence, 31 g ai/ha): 50
